The values that follow come from patent US11912663B2, “Multi-targeted tyrosine kinase inhibitors and their pharmaceutical uses” (Shanghai AB PharmaTech Ltd., priority 2021, dated 2024).

SMILES strings stand for the structures.

Chain of hERG potassium channels (Q12809 whole entry): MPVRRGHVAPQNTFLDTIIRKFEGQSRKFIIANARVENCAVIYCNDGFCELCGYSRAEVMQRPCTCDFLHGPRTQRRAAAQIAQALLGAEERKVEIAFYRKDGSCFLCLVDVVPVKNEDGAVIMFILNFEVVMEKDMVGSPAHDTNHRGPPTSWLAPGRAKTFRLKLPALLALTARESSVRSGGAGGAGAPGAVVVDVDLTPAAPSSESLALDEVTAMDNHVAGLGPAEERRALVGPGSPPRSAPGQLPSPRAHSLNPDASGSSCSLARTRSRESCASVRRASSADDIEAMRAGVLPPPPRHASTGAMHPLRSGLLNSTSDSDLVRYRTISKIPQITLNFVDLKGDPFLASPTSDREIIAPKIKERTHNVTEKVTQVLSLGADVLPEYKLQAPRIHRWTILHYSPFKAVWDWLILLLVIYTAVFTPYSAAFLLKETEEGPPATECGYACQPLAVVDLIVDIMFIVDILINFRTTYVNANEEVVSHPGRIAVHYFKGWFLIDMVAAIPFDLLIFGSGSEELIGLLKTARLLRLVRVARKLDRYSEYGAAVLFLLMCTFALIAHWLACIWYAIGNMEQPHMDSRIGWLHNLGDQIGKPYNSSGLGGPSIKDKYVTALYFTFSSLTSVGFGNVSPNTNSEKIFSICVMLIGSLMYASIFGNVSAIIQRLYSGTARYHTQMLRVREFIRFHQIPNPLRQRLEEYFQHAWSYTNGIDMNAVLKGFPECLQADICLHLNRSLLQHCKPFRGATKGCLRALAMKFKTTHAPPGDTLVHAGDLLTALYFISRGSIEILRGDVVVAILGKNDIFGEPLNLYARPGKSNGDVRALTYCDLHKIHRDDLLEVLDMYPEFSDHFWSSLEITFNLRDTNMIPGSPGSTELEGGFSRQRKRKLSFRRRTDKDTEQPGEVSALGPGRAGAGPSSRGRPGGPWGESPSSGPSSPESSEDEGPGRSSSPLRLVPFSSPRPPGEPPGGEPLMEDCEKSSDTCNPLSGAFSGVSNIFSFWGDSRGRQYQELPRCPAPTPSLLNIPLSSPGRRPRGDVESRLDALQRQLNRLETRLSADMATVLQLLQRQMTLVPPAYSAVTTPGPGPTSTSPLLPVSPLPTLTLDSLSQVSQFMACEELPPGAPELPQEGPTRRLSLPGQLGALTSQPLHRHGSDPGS
Chain of RET (P07949 29-1114): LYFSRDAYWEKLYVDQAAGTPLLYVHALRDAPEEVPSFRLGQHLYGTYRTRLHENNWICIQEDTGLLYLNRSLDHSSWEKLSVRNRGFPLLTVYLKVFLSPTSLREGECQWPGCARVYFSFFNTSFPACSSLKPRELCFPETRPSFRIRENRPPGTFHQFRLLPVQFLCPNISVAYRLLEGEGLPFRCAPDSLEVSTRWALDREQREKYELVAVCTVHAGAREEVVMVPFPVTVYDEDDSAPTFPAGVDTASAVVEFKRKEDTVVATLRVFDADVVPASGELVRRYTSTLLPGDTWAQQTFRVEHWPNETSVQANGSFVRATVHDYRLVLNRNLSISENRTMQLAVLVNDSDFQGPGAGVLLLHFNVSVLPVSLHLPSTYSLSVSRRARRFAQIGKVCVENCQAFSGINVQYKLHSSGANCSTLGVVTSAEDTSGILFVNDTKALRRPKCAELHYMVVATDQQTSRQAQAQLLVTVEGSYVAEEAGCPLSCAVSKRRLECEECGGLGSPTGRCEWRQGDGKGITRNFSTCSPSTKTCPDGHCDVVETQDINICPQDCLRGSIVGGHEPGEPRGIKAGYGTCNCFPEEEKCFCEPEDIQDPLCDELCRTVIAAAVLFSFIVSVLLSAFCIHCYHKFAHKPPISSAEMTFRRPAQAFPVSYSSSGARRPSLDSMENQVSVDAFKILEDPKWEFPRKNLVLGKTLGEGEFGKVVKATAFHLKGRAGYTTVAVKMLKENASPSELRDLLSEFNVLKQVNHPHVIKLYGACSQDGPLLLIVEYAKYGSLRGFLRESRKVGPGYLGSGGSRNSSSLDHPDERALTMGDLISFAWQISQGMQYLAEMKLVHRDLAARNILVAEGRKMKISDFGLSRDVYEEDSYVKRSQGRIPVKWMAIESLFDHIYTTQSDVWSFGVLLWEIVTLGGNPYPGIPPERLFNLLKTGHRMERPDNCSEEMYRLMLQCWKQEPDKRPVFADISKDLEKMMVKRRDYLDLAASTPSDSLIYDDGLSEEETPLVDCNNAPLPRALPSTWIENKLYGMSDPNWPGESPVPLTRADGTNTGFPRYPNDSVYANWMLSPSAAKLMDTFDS

One data set has as its system lung cancer cell line (A549). Nature of the data set: tumor cell proliferation inhibition (CTG), lung cancer cell line. It counts as cell-based. The note with it: Homo sapiens, 72 hours.
Turning to `NC(=O)c1cc2c(Oc3c(F)cc(NC(=O)NC4CC4)c(Cl)c3F)ccnc2cc1OCCO` [IIIb-60], the IC50 was < 2.5 µM.

For `CNC(=O)c1cc(Oc2ccc(NC(=O)Nc3ccc(Cl)c(C(F)(F)F)c3)c(F)c2)ccn1` [Regorafenib, regorafenib, reference compound], the IC50 is > 5 µM.

With `N#CCOc1cc2nccc(Oc3c(F)cc(NC(=O)NC4CC4)c(Cl)c3F)c2cc1C(N)=O` [IIIb-58], the IC50 is < 2.5 µM.

The next data set has as its system leukemia cell line (K562). Nature of the data set: tumor cell proliferation inhibition (CTG), leukemia cell line. It counts as cell-based. The note with it: Homo sapiens, 72 hours.
Consider `NC(=O)c1cc2c(Oc3c(F)cc(NC(=O)NC4CC4)c(Cl)c3F)ccnc2cc1OCCO` [IIIb-60], for which the IC50 was < 5 µM.

For `CNC(=O)c1cc(Oc2ccc(NC(=O)Nc3ccc(Cl)c(C(F)(F)F)c3)c(F)c2)ccn1` [Regorafenib, regorafenib, reference compound], the IC50 is > 10 µM.

Consider `N#CCOc1cc2nccc(Oc3c(F)cc(NC(=O)NC4CC4)c(Cl)c3F)c2cc1C(N)=O` [IIIb-58], for which the IC50 was < 5 µM.

Tested on in another data set: not listed separately
The data set can be described thus: MTD toxicity test in rats. The format is in vivo. The note with it: rat, in vivo, 150 mg/kg.
For the molecule `NC(=O)c1cc2c(Oc3c(F)cc(NC(=O)NC4CC4)c(Cl)c3F)ccnc2cc1OCCO` [IIIb-60], the “MTD toxicity test, clinical outcome” value is “no abnormalities such as death”.

For the molecule `N#CCOc1cc2nccc(Oc3c(F)cc(NC(=O)NC4CC4)c(Cl)c3F)c2cc1C(N)=O` [IIIb-58], the “MTD toxicity test, clinical outcome” value is listed as “no abnormalities such as death”.

Staying with this data set, now noted: rats, 150 mg/kg, QD, 14 days; heart, liver, lungs, kidneys, stomach, intestines and other organs.
For the molecule `NC(=O)c1cc2c(Oc3c(F)cc(NC(=O)NC4CC4)c(Cl)c3F)ccnc2cc1OCCO` [IIIb-60], the “autopsy results of organs” value is on record as “did not reveal any abnormal changes”.

On to `N#CCOc1cc2nccc(Oc3c(F)cc(NC(=O)NC4CC4)c(Cl)c3F)c2cc1C(N)=O` [IIIb-58], for which the “autopsy results of organs” value was “did not reveal any abnormal changes”.

The next data set concerns cervical cancer cell lines (Hela). Nature of the data set: tumor cell proliferation inhibition (CTG), cervical cancer cell line. The format is cell-based. The note with it: Homo sapiens, 72 hours.
For `NC(=O)c1cc2c(Oc3c(F)cc(NC(=O)NC4CC4)c(Cl)c3F)ccnc2cc1OCCO` [IIIb-60], the IC50 was < 5 µM.

As to `CNC(=O)c1cc(Oc2ccc(NC(=O)Nc3ccc(Cl)c(C(F)(F)F)c3)c(F)c2)ccn1` [Regorafenib, regorafenib, reference compound], the IC50 was > 10 µM.

As for `N#CCOc1cc2nccc(Oc3c(F)cc(NC(=O)NC4CC4)c(Cl)c3F)c2cc1C(N)=O` [IIIb-58], the IC50 was < 5 µM.

The next data set concerns kidney cancer cell line (Caki-1). The data set can be described thus: tumor cell proliferation inhibition (CTG), kidney cancer cell line. It counts as cell-based. To be noted: Homo sapiens, 72 hours, read-out: Caki-1 (renal cancer) IC50.
For the molecule `NC(=O)c1cc2c(Oc3c(F)cc(NC(=O)NC4CC4)c(Cl)c3F)ccnc2cc1OCCO` [IIIb-60], the 50% inhibitory concentration (IC50) was < 2.5 µM.

On to `CNC(=O)c1cc(Oc2ccc(NC(=O)Nc3ccc(Cl)c(C(F)(F)F)c3)c(F)c2)ccn1` [Regorafenib, regorafenib, reference compound], for which the IC50 was > 5 µM.

Consider `N#CCOc1cc2nccc(Oc3c(F)cc(NC(=O)NC4CC4)c(Cl)c3F)c2cc1C(N)=O` [IIIb-58], for which the IC50 was < 2.5 µM.

The test system of another data set is hepatocellular carcinoma cell line (Hep3B 2.1-7). Nature of the data set: tumor cell proliferation inhibition (CTG), hepatocellular carcinoma cell line. To be noted: Homo sapiens, 72 hours. The format is cell-based.
With `NC(=O)c1cc2c(Oc3c(F)cc(NC(=O)NC4CC4)c(Cl)c3F)ccnc2cc1OCCO` [IIIb-60], the IC50 was < 2.5 µM.

For `CNC(=O)c1cc(Oc2ccc(NC(=O)Nc3ccc(Cl)c(C(F)(F)F)c3)c(F)c2)ccn1` [Regorafenib, regorafenib, reference compound], the IC50 is > 5 µM.

`N#CCOc1cc2nccc(Oc3c(F)cc(NC(=O)NC4CC4)c(Cl)c3F)c2cc1C(N)=O` [IIIb-58]: the IC50 is < 2.5 µM.

The next data set concerns the target RET (Homo sapiens (Human), UniProt P07949). The data set can be described thus: kinase inhibition, Mobility-Shift Assay. The format is biochemical. The note with it: 23 μM ATP.
As for `NC(=O)c1cc2c(Oc3c(F)cc(NC(=O)NC4CC4)c(Cl)c3F)ccnc2cc1OCCO` [IIIb-60], the IC50 was < 0.005 µM.

As for `N#CCOc1cc2nccc(Oc3c(F)cc(NC(=O)NC4CC4)c(Cl)c3F)c2cc1C(N)=O` [IIIb-58], the IC50 was < 0.005 µM.

The next data set concerns prostatic cancer (PC-3). The data set can be described thus: tumor cell proliferation inhibition (CTG), PC-3. It counts as cell-based. The note with it: 72 hours.
For `NC(=O)c1cc2c(Oc3c(F)cc(NC(=O)NC4CC4)c(Cl)c3F)ccnc2cc1OCCO` [IIIb-60], the IC50 fell in the range of 5 to 10 µM.

`CNC(=O)c1cc(Oc2ccc(NC(=O)Nc3ccc(Cl)c(C(F)(F)F)c3)c(F)c2)ccn1` [Regorafenib, regorafenib, reference compound]: the IC50 is > 10 µM.

On to `N#CCOc1cc2nccc(Oc3c(F)cc(NC(=O)NC4CC4)c(Cl)c3F)c2cc1C(N)=O` [IIIb-58], for which the IC50 lay in the range of 5 to 10 µM.

The subject of a further data set is BXPC3, SNU16, Hep3B 2.1-7 subcutaneous tumors. The data set can be described thus: tumor suppression in nude mice with subcutaneously transplanted tumors. The format is in vivo. The note with it: BXPC3, SNU16, Hep3B 2.1-7 transplants, within 3-4 weeks. The text has this:
These preferred compounds (e.g., IIIb-08, IIIb-09, IIIb-45, IIIb-50, IIIb-55, IIIb-56, IIIb-57, IIIb-58, IIIb-60, IIIb-61, IIIb-65) are currently being used to […] in nude mice subcutaneously transplanted with pancreatic cancer cell line (BXPC3), gastric cancer cell line (SNU16), liver cancer cell line (Hep3B 2.1-7) and other tumor suppressive effects have been observed in vivo, the tumor suppression rate of subcutaneous tumors in nude mice could reach 80-110% within 3-4 weeks. […] Therefore, the preferred compounds “IIIb-08, IIIb-09, IIIb-45, IIIb-50, IIIb-55, IIIb-56, IIIb-57, IIIb-58, IIIb-60, IIIb-61, IIIb-65” designed and synthesized by the present invention not only have better inhibitory activity, but also have better safety and drug-forming properties, which are valuable for further preclinical studies such as pharmacotoxicology and clinical trials.
For `NC(=O)c1cc2c(Oc3c(F)cc(NC(=O)NC4CC4)c(Cl)c3F)ccnc2cc1OCCO` [IIIb-60], the “tumor suppression rate of subcutaneous tumors” value was 80-110%.

Consider `N#CCOc1cc2nccc(Oc3c(F)cc(NC(=O)NC4CC4)c(Cl)c3F)c2cc1C(N)=O` [IIIb-58], for which the “tumor suppression rate of subcutaneous tumors” value is 80-110%.

For a further data set, the target named is VEGFR2 (KDR) (Homo sapiens (Human), UniProt P35968). The data set can be described thus: kinase inhibition, Mobility-Shift Assay. The format is biochemical. The note with it: VEGFR2, 92 μM ATP.
Chain of VEGFR2 (KDR) (P35968 20-1356): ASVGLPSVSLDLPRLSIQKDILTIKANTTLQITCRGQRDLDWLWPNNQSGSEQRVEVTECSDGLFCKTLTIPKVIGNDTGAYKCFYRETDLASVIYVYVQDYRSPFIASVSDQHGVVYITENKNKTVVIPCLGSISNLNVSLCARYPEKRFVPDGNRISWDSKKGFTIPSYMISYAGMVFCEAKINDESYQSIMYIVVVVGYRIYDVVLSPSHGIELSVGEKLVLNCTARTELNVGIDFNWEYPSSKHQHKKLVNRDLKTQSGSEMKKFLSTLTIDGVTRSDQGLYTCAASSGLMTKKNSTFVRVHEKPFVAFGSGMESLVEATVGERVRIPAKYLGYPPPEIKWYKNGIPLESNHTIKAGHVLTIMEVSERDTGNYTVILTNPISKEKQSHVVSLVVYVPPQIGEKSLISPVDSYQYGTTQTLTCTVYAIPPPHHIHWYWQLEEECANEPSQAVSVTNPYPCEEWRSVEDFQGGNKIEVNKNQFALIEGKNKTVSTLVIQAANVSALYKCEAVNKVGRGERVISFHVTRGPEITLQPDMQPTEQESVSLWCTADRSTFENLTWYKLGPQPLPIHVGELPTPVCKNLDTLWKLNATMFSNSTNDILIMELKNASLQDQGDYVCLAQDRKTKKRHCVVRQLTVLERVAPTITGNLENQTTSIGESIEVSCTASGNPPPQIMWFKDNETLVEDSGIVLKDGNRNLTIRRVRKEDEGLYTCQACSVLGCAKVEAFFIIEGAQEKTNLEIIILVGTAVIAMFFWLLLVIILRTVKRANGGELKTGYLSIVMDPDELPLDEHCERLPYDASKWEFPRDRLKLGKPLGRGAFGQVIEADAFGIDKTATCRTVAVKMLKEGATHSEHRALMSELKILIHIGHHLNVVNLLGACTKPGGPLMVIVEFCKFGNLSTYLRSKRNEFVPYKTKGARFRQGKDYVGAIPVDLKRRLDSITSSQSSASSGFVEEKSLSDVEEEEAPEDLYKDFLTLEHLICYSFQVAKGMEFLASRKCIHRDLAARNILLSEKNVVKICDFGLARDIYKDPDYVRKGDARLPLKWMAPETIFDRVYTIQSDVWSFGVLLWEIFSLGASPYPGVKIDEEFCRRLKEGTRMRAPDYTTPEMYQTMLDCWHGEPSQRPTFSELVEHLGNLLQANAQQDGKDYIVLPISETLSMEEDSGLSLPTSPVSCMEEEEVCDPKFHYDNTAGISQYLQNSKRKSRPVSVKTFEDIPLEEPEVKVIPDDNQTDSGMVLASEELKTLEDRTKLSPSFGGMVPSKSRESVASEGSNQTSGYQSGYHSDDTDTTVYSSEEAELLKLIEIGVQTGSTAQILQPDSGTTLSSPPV
On to `NC(=O)c1cc2c(Oc3c(F)cc(NC(=O)NC4CC4)c(Cl)c3F)ccnc2cc1OCCO` [IIIb-60], for which the IC50 is < 0.005 µM.

As for `N#CCOc1cc2nccc(Oc3c(F)cc(NC(=O)NC4CC4)c(Cl)c3F)c2cc1C(N)=O` [IIIb-58], the IC50 was < 0.005 µM.

Another data set concerns the target VEGFR3 (FLT4) (Homo sapiens (Human), UniProt P35916). The data set can be described thus: kinase inhibition, Mobility-Shift Assay. The note with it: 84 μM ATP. It counts as biochemical.
Turning to `NC(=O)c1cc2c(Oc3c(F)cc(NC(=O)NC4CC4)c(Cl)c3F)ccnc2cc1OCCO` [IIIb-60], the IC50 is < 0.005 µM.

Consider `N#CCOc1cc2nccc(Oc3c(F)cc(NC(=O)NC4CC4)c(Cl)c3F)c2cc1C(N)=O` [IIIb-58], for which the 50% inhibitory concentration (IC50) was < 0.005 µM.

The target in a further data set is FGFR2 (Homo sapiens (Human), UniProt P21802). The data set can be described thus: kinase inhibition, Mobility-Shift Assay. It counts as biochemical. The note with it: 1.9 μM ATP.
As to `NC(=O)c1cc2c(Oc3c(F)cc(NC(=O)NC4CC4)c(Cl)c3F)ccnc2cc1OCCO` [IIIb-60], the IC50 is < 0.05 µM.

In the case of `N#CCOc1cc2nccc(Oc3c(F)cc(NC(=O)NC4CC4)c(Cl)c3F)c2cc1C(N)=O` [IIIb-58], the IC50 is < 0.05 µM.

A further data set addresses hERG potassium channels (Homo sapiens (Human), UniProt Q12809). The data set can be described thus: in vitro inhibitory effect of hERG, whole-cell patch clamp. The format is cell-based. The note with it: whole-cell recording, room temperature.
With `NC(=O)c1cc2c(Oc3c(F)cc(NC(=O)NC4CC4)c(Cl)c3F)ccnc2cc1OCCO` [IIIb-60], the half-maximal inhibitory concentration (IC50) was > 30 µM.

Molecule `CNC(=O)c1cc(Oc2ccc(NC(=O)Nc3ccc(Cl)c(C(F)(F)F)c3)c(F)c2)ccn1` [Regorafenib, regorafenib, reference compound] came in with an IC50 of 27 µM.

As for `N#CCOc1cc2nccc(Oc3c(F)cc(NC(=O)NC4CC4)c(Cl)c3F)c2cc1C(N)=O` [IIIb-58], the IC50 was > 30 µM.

The subject of the next data set is pancreatic cancer cell line (BXPC3). The data set can be described thus: tumor cell proliferation inhibition (CTG), pancreatic cancer cell line. It counts as cell-based. To be noted: Homo sapiens, BXPC-3, 72 hours.
Turning to `NC(=O)c1cc2c(Oc3c(F)cc(NC(=O)NC4CC4)c(Cl)c3F)ccnc2cc1OCCO` [IIIb-60], the IC50 is < 5 µM.

Regarding `CNC(=O)c1cc(Oc2ccc(NC(=O)Nc3ccc(Cl)c(C(F)(F)F)c3)c(F)c2)ccn1` [Regorafenib, regorafenib, reference compound], the half-inhibitory concentration (IC50) was > 10 µM.

Take `N#CCOc1cc2nccc(Oc3c(F)cc(NC(=O)NC4CC4)c(Cl)c3F)c2cc1C(N)=O` [IIIb-58]: the IC50 was < 5 µM.

The subject of the next data set is gastric cancer cell line (SNU16). The data set can be described thus: tumor cell proliferation inhibition (CTG), gastric cancer cell line. The format is cell-based. To be noted: Homo sapiens, SNU-16, 72 hours, read-out: SUN16 IC50.
On to `NC(=O)c1cc2c(Oc3c(F)cc(NC(=O)NC4CC4)c(Cl)c3F)ccnc2cc1OCCO` [IIIb-60], for which the IC50 is < 5 µM.

For `CNC(=O)c1cc(Oc2ccc(NC(=O)Nc3ccc(Cl)c(C(F)(F)F)c3)c(F)c2)ccn1` [Regorafenib, regorafenib, reference compound], the IC50 fell in the range of 5 to 10 µM.

For the molecule `N#CCOc1cc2nccc(Oc3c(F)cc(NC(=O)NC4CC4)c(Cl)c3F)c2cc1C(N)=O` [IIIb-58], the IC50 was < 5 µM.

The target in a further data set is VEGFR1 (FLT1) (Homo sapiens (Human), UniProt P17948). Nature of the data set: kinase inhibition, Mobility-Shift Assay. The format is biochemical. To be noted: 278 μM ATP.
Chain of VEGFR1 (FLT1) (P17948 27-1338): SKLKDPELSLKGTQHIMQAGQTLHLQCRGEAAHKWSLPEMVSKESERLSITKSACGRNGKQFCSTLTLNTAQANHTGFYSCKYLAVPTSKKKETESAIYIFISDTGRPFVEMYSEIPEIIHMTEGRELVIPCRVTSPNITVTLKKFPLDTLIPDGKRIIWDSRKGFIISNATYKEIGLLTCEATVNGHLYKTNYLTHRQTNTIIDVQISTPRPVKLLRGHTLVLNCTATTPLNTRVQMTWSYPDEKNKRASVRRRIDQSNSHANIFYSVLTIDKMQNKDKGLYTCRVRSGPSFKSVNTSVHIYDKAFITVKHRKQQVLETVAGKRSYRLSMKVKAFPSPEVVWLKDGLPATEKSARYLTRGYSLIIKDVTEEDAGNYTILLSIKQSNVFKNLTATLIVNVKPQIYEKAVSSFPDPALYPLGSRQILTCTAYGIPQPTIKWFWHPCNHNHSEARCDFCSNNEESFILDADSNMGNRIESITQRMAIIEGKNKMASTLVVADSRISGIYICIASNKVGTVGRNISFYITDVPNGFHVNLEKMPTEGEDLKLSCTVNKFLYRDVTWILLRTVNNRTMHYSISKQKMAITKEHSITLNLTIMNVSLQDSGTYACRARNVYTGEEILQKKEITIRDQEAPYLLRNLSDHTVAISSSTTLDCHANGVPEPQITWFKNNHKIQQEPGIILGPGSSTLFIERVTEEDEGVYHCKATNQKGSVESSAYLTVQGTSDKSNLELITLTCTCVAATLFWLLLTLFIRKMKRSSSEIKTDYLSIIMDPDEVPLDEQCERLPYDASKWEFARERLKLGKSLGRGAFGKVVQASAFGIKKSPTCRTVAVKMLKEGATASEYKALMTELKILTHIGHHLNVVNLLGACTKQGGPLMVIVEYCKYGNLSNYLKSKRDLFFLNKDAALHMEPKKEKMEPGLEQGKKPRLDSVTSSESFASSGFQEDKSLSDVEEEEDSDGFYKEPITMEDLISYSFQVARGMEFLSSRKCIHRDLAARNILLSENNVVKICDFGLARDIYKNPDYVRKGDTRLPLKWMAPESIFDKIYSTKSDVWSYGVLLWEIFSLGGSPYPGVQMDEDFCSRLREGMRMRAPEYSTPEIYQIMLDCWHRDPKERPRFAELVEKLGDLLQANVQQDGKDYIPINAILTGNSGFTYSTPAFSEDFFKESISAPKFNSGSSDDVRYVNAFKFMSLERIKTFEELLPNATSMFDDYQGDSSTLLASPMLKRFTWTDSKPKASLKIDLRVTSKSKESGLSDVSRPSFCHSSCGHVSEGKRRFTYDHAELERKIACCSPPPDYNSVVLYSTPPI
Regarding `NC(=O)c1cc2c(Oc3c(F)cc(NC(=O)NC4CC4)c(Cl)c3F)ccnc2cc1OCCO` [IIIb-60], the IC50 is < 0.005 µM.

For `N#CCOc1cc2nccc(Oc3c(F)cc(NC(=O)NC4CC4)c(Cl)c3F)c2cc1C(N)=O` [IIIb-58], the IC50 is < 0.005 µM.
